Results on 23 compounds are retold here after US10266535B2, “Inhibitor of FLT3 kinase and use thereof” (HEFEI INSTITUTES OF PHYSICAL SCIENCE, CHINESE ACADEMY OF …, priority 2015, dated 2019).

The test system of assay [1] is TEL-BaF3-FLT3/ITD (stably expressing FLT3/ITD mutant activated kinase). The assay is described as follows: Cell proliferation, Cell Titer-Glo, TEL-BaF3-FLT3/ITD. Type of assay: cell-based, mouse. Conditions: for pIC50: incubated for 72 hours, read-out: TEL-BaF3-FLT3/ITD IC50. How it is done:
(§1) The above cell lines were constructed by our laboratory.
(§2) The number of viable cells was determined by quantification of ATP in living cells using the Cell Titer-Glo® (Promega, USA) chemiluminescence cell viability assay kit.

Assay [2] has as its system OCI-AML-3 (expressing FLT3 A680V mutant gene). The assay is described as follows: Cell proliferation, Cell Titer-Glo, OCI-AML3. It is filed as cell-based. Conditions: Homo sapiens, incubated for 72 hours. The protocol: as §1, §2
The subject of assay [3] is MV4-11 (expressing FLT3/ITD mutant gene). Kind of assay: Cell proliferation, Cell Titer-Glo, MV4-11. Type of assay: cell-based. Conditions: Homo sapiens; for pIC50: MV4-11, incubated for 72 hours, read-out: MV4-11 IC50. The protocol: as §1, §2
Assay [4] relates to U937 (expressing wild-type FLT3 gene). Kind of assay: Cell proliferation, Cell Titer-Glo, U937. Type of assay: cell-based, human. Conditions: Homo sapiens, U-937, 72 h, incubated for 72 hours; read-out: U937 IC50. The protocol: as §1, §2
Assay [5] has as its system pro-B cell BaF3. Kind of assay: Cell proliferation, Cell Titer-Glo, BaF3. Type of assay: cell-based. Conditions: Mus musculus, incubated for 72 hours. How it is done: as §1, §2
Assay [6] concerns MOLM-13 (expressing FLT3/ITD mutant gene and wild-type FLT3 gene). Kind of assay: Cell proliferation, Cell Titer-Glo, MOLM-13. Type of assay: cell-based. Conditions: Homo sapiens, MOLM-13; incubated for 72 hours; read-out: MOLM-13 IC50. How it is done:
as §1, §2

In assay [7] the test system is TEL-cKIT-BaF3 (stably expressing cKIT kinase). The assay is described as follows: Cell proliferation, Cell Titer-Glo, TEL-cKIT-BaF3. Conditions: Mus musculus; incubated for 72 hours. It is filed as cell-based. How it is done:
as §1, §2

The test system of assay [8] is TEL-BaF3-BLK (stably expressing BLK kinase). Kind of assay: Cell proliferation, Cell Titer-Glo, TEL-BaF3-BLK. It is filed as cell-based. Conditions: Mus musculus; incubated for 72 hours. How it is done:
as §1, §2

Assay [9] has as its system TEL-BaF3-BMX (stably expressing BMX kinase). The assay is described as follows: Cell proliferation, Cell Titer-Glo, TEL-BaF3-BMX. Type of assay: cell-based. Conditions: Mus musculus; incubated for 72 hours. How it is done:
as §1, §2

pIC50: −log10 of the molar value. Structures can show the parent of a compound that is named as a salt. Where two headings read alike, the source gives them in different places.

For `CC(=O)N1CCC[C@@H](n2nc(-c3ccc(Oc4ccccc4)cc3)c3c(N)ncnc32)C1` [Compound 34], the pIC50 in [1] (Mus musculus, 72 h) is 7.15; in [2], 5.45; in assay [3] it was 6.46; in [4], less than 5.00.

For `Nc1ccc(C(=O)N2CCC[C@@H](n3nc(-c4ccc(Oc5ccccc5)cc4)c4c(N)ncnc43)C2)cn1` [Compound 17, (R)-(3-(4-amino-(4-phenoxyphenyl)-1H-pyrazolo[3,4-d]pyrimidin-1-yl)piperidin-1-yl)(6-aminopyridin-3-yl)methanone], the pIC50 was 6.06 in [1] (Mus musculus, 72 h) and less than 5.00 in assay [4].

As to `Nc1ncnc2c1c(-c1ccc(Oc3ccccc3)cc1)nn2[C@@H]1CCCN(C(=O)C2CC2)C1` [Compound 1, (R)-(3-(4-amino-(4-phenoxyphenyl)-1H-pyrazolo[3,4-d]pyrimidin-1-yl)piperidin-1-yl)(cyclopropyl)methanone], the pIC50 was 5.85 in assay [1] (Mus musculus, 72 h); less than 5.00 in [2]; 5.19 in [3]; less than 5.00 in [4].

With `CS(=O)(=O)N1CCC(n2nc(-c3ccc(Oc4ccccc4)cc3)c3c(N)ncnc32)CC1` [Compound 73, 1-(1-(methylsulfonyl)piperidin-4-yl)-3-(4-phenoxyphenyl)-1H-pyrazolo[3,4-d]pyrimidin-4-amine], the pIC50 was 6.72 in [1] (Mus musculus, 72 h) and less than 5.00 in [5].

Regarding `Nc1ncc(C(=O)N2CCC[C@@H](n3nc(-c4ccc(Oc5ccccc5)cc4)c4c(N)ncnc43)C2)cn1` [Compound 21, (R)-(3-(4-amino-(4-phenoxyphenyl)-1H-pyrazolo[3,4-d]pyrimidin-1-yl)piperidin-1-yl)(2-aminopyrimidin-5-yl)methanone], the pIC50 in assay [1] (Mus musculus, 72 h) was 6.48; in assay [4] it was less than 5.00.

`NC(=O)CC[C@H](N)C(=O)N1CCC[C@@H](n2nc(-c3ccc(Oc4ccccc4)cc3)c3c(N)ncnc32)C1` [Compound 56]: the pIC50 was 6.31 in assay [1] (Mus musculus, 72 h); 6.15 in assay [6]; 6.62 in [3]; less than 5.00 in assay [5].

Consider `CC(C)(C)OC(=O)NCC(=O)N1CCC[C@@H](n2nc(-c3ccc(Oc4ccccc4)cc3)c3c(N)ncnc32)C1` [Compound 59, (R)-tert-butyl 2-(3-(4-amino-3-(4-phenoxyphenyl)-1H-pyrazolo[3,4-d]pyrimidin-1-yl)piperidin-1-yl)-2-oxoethylcarbamate], for which the pIC50 is 6.74 in assay [1] (Mus musculus, 72 h); 6.11 in [6]; 6.37 in assay [3]; 5.03 in assay [5].

With `Nc1ncnc2c1c(-c1ccc(Oc3ccccc3)cc1)nn2[C@@H]1CCCN(C(=O)c2ccc3c(c2)OCO3)C1` [Compound 18, (R)-(3-(4-amino-(4-phenoxyphenyl)-1H-pyrazolo[3,4-d]pyrimidin-1-yl)piperidin-1-yl)-(3,4-methylenedioxyphenyl)mathanone], the pIC50 in assay [1] (Mus musculus, 72 h) is 5.74; in assay [4], less than 5.00.

On to `COC(=O)c1ccc(C(=O)N2CCC[C@@H](n3nc(-c4ccc(Oc5ccccc5)cc4)c4c(N)ncnc43)C2)cc1` [Compound 16, (R)-methyl 4-(3-(4-amino-(4-phenoxyphenyl)-1H-pyrazolo[3,4-d]pyrimidin-1-yl)piperidine-1-carbonyl)benzoate], for which the pIC50 in [1] (Mus musculus, 72 h) is 5.22; in assay [4], less than 5.00.

For `C[C@@H](N)C(=O)N1CCC[C@@H](n2nc(-c3ccc(Oc4ccccc4)cc3)c3c(N)ncnc32)C1` [Compound 24, (R)-2-amino-1-((R)-3-(4-amino-(4-phenoxyphenyl)-1H-pyrazolo[3,4-d]pyrimidin-1-yl)piperidin-1-yl)propan-1-one], the values for the pIC50 in assay [1] and in [4] were 6.17 and 5.11, respectively.

As to `CS(=O)(=O)N1CC[C@@H](n2nc(-c3ccc(Oc4ccccc4)cc3)c3c(N)ncnc32)C1` [Compound 67, (R)-1-(1-(methylsulfonyl)pyrrolidin-3-yl)-3-(4-phenoxyphenyl)-1H-pyrazolo[3,4-d]pyrimidin-4-amine], the pIC50 was 6.89 in assay [1] (Mus musculus, 72 h); 5.84 in assay [6]; 6.38 in assay [3]; less than 5.00 in assay [5].

For the compound `Nc1ncnc2c1c(-c1ccc(Oc3ccccc3)cc1)nn2[C@@H]1CCCN(C(=O)c2cncnc2)C1` [Compound 15, (R)-(3-(4-amino-(4-phenoxyphenyl)-1H-pyrazolo[3,4-d]pyrimidin-1-yl)piperidin-1-yl)(pyrimidin-5-yl)methanone], the pIC50 is 6.70 in assay [1] (Mus musculus, 72 h) and less than 5.00 in assay [4].

For `CC(C)C[C@@H](O)C(=O)N1CCC[C@@H](n2nc(-c3ccc(Oc4ccccc4)cc3)c3c(N)ncnc32)C1` [Compound 61, (R)-1-((R)-3-(4-amino-(4-phenoxyphenyl)-1H-pyrazolo[3,4-d]pyrimidin-1-yl)piperidin-1-yl)-2-hydroxyl-4-methylpentan-1-one], the pIC50 is 6.32 in assay [1] (Mus musculus, 72 h); 5.67 in assay [6]; 6.02 in [3]; 5.14 in [5].

`Nc1ncnc2c1c(-c1ccc(Oc3ccccc3)cc1)nn2[C@@H]1CCCN(C(=O)c2cccnc2)C1` [Compound 13, (R)-(3-(4-amino-(4-phenoxyphenyl)-1H-pyrazolo[3,4-d]pyrimidin-1-yl)piperidin-1-yl)(pyridin-3-yl)methanone]: the pIC50 in assay [1] (Mus musculus, 72 h) was 6.35; in [4], less than 5.00.

In the case of `CN(C)CC(=O)N1CCC(n2nc(-c3ccc(Oc4ccccc4)cc3)c3c(N)ncnc32)CC1` [Compound 72, 1-(4-(4-amino-(4-phenoxyphenyl)-1H-pyrazolo[3,4-d]pyrimidin-1-yl)piperidin-1-yl)-2-(dimethylamino)ethanone], the pIC50 was 7.12 in assay [1] (Mus musculus, 72 h) and 5.44 in assay [5].

In the case of `CC(C)C[C@@H](N)C(=O)N1CCC(n2nc(-c3ccc(Oc4ccccc4)cc3)c3c(N)ncnc32)CC1` [Compound 74, (R)-2-amino-1-(4-(4-amino-(4-phenoxyphenyl)-1H-pyrazolo[3,4-d]pyrimidin-1-yl)piperidin-1-yl)-4-methylpentan-1-one], the pIC50 in assay [1] (Mus musculus, 72 h) is 7.12; in [5] it was 6.23.

For the compound `NCCCCC(=O)N1CCC[C@@H](n2nc(-c3ccc(Oc4ccccc4)cc3)c3c(N)ncnc32)C1` [Compound 62], the pIC50 in assay [1] (Mus musculus, 72 h) was 6.39; in assay [6], 5.92; in assay [3], 6.42; in assay [5] it was 5.07.

In the case of `CCCCC(O)C(=O)N1CCC[C@@H](n2nc(-c3ccc(Oc4ccccc4)cc3)c3c(N)ncnc32)C1` (stereo partly shown) [Compound 63], the pIC50 in [1] (Mus musculus, 72 h) is 6.82; in [6] it was 6.14; in assay [3], 6.46; in [5], 5.33.

`CC(C)(C)OC(=O)NCC(=O)N1CC[C@@H](n2nc(-c3ccc(Oc4ccccc4)cc3)c3c(N)ncnc32)C1` [Compound 66, (R)-tert-butyl 2-(3-(4-amino-(4-phenoxyphenyl)-1H-pyrazolo[3,4-d]pyrimidin-1-yl)pyrrolidin-1-yl)-2-oxoethylcarbamate]: the pIC50 in assay [1] (Mus musculus, 72 h) is 6.80; in assay [6] it was 5.80; in assay [3], 6.14; in assay [5], 5.20.

For `Nc1ncnc2c1c(-c1ccc(Oc3ccccc3)cc1)nn2[C@@H]1CCCN(C(=O)C2CCNCC2)C1` [Compound 19, (R)-(3-(4-amino-(4-phenoxyphenyl)-1H-pyrazolo[3,4-d]pyrimidin-1-yl)piperidin-1-yl)-4-piperidinmethanone], the pIC50 was 6.10 in assay [1] (Mus musculus, 72 h) and less than 5.00 in [4].

`CN1CCN(CCC(=O)N2CCC[C@@H](n3nc(-c4ccc(Oc5ccccc5)cc4)c4c(N)ncnc43)C2)CC1` [Compound 58]: the pIC50 in assay [1] (Mus musculus, 72 h) is 7.03; in assay [7], 5.13; in assay [8], 6.82; in assay [6] it was 6.72; in [9] it was 6.57; in assay [3], 7.24. The compound further gave a pIC50 in assay [5] of 5.43.

Turning to `CC(C)C[C@@H](N)C(=O)N[C@H]1CC[C@H](n2nc(-c3ccc(Oc4ccccc4)cc3)c3c(N)ncnc32)CC1` (stereo in doubt) [Compound 85, (R)-2-amino-N-(4-(4-amino-3-(4-phenoxyphenyl)-1H-pyrazolo[3,4-d]pyrimidin-1-yl)trans-1,4-cyclohexyl)-4-methylpentanamide hydrochloride], the IC50 in [1] (Mus musculus, 72 h, read-out: TEL-BaF3-FLT3/ITD IC50 [μM], incubated for 72 hours) is 0.082 µM; in assay [3] (MV4-11, 72 h, read-out: MV4-11 IC50 [μM]), 0.51 µM. Moreover, in assay [5], the pIC50 was 6.02.

For `Nc1ncnc2c1c(-c1ccc(Oc3ccccc3)cc1)nn2[C@@H]1CCCN(S(=O)(=O)C(F)(F)F)C1` [Compound 3, (R)-3-(4-phenoxyphenyl)-1-(1-((trifluoromethyl)sulfonyl)piperidin-3-yl)-1H-pyrazolo[3,4-d]pyrimidin-4-amine], the pIC50 in assay [1] (Mus musculus, 72 h) was 5.74; in [4], less than 5.00.
